Laboratory results taken from patent US20180289678A1, “PHARMACEUTICAL COMPOSITION, PHARMACEUTICAL DOSAGE FORM, PROCESS FOR THEIR PREPARATION, METHODS FOR TREATING AND USES THEREOF” (Boehringer Ingelheim International GmbH, priority 2009, published 2018).

Assay: Particle size distribution measurement by laser diffraction
Type: physicochemical
Settings: particle size distribution by volume
From the text: The value X90 refers to the 90% value of the volume distribution measured using a laser diffractometer. In other words, for the purposes of the present invention, the X90 value denotes the particle size below which 90% of the quantity of particles is found based on the volume distribution. Analogously the value X50 refers to the 50% value (median) of the volume distribution measured using a laser diffractometer. In other words, for the purposes of the present invention, the X50 value denotes the particle size below which 50% of the quantity of particles is found based on the volume distribution. Analogously the value X10 refers to the 10% value of the volume distribution measured using a laser diffractometer. In other words, for the purposes of the present invention, the X10 value denotes the particle size below which 10% of the quantity of particles is found based on the volume distribution.
Preferably all X90, X50, X10 values hereinbefore and hereinafter are by volume and determined by laser-diffraction method, in particular low angle laser light scattering, i.e. Fraunhofer diffraction. A preferred test is described in the experimental section. The laser diffraction method is sensitive to the volume of a particle and provides a volume-average particle size, which is equivalent to the weight-average particle size if the density is constant.
3. Particle Size Distribution Measurement by Laser Diffraction
Particle size distribution measurement is performed for example via light scattering or laser diffraction technique. To determine the particle size the powder is fed into a laser diffraction spectrometer for example by means of a dispersing unit. The test method is described below in detail:
Equipment: Laser Diffraction Spectrometer Sympatec HELOS Particle Sizer.
Sample Dispersing Unit: Dry disperser RODOS/M
Feed Velocity: 60.00 mm/s
Primary pressure: 2.00 bar
Injector depression: maximize (mbar)2
Reference Measurement: 10 seconds
Trigger Conditions: Start 0.0 seconds after optical concentration 1% valid always
Stop after 5.0 seconds optical concentration 1% or after 30 seconds real time
Optical Concentration: Approximately range 3-12%
Sample Size: Approximately 100 mg
Number of measurements: 2 (duplicate)
The instrument is set up according to the manufacturer's recommendation and using the manufacturer provided software. The sample container is thoroughly mixed and tumbled prior to removing a portion of the sample to ensure that a representative sample is tested. Duplicate samples are prepared by using a spatula to transfer approximately 100 mg of a sample into the ASPIROS glass vials and cap the vials. The capped cials are placed into the feeder.

For `OC[C@H]1O[C@@H](c2ccc(Cl)c(Cc3ccc(O[C@H]4CCOC4)cc3)c2)[C@H](O)[C@@H](O)[C@@H]1O` [Active substance Batch 2], the X10 was 1.7 μm, the X50 was 12.1 μm and the X90 was 25.9 μm.
`OC[C@H]1O[C@@H](c2ccc(Cl)c(Cc3ccc(O[C@H]4CCOC4)cc3)c2)[C@H](O)[C@@H](O)[C@@H]1O` [Active substance Batch 1] gave an X10 of 1.8 μm, an X50 of 18.9 μm and an X90 of 45.3 μm.
